Test results published in PubChem BioAssay AID1919000 (Molecular Pharmacology Branch, DTP, NCI, 2023).

System: 653999-131-R-J2-PDC complex spheroids, growth % test/control
Test: Anticancer human tumor 653999-131-R-J2-PDC patient-derived lung adenocarcinoma cell line growth inhibition [AhR]
Details: for IC50: curve of first compound; for viability, T/C: stronger effect = lower value
Summary of the method: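 Complex tumor spheroids co-cultured with HUVEC and human MSC stroma; AhR antagonists tested in combination with standard-of-care and investigational agents. Top concentration at or near clinical Cmax (else 10 microM), half-log dilutions; growth expressed as percent test/control.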

[1] = second compound 0.1 µM, first compound 0.0316 µM
[2] = second compound 0.1 µM, first compound 0.1 µM
[3] = second compound 0.1 µM, first compound 0.316 µM
[4] = second compound 0.1 µM, first compound 1 µM
[5] = second compound 0.316 µM, first compound 0.0316 µM
[6] = second compound 0.316 µM, first compound 0.1 µM
[7] = second compound 0.316 µM, first compound 0.316 µM
[8] = second compound 0.316 µM, first compound 1 µM
[9] = second compound 1 µM, first compound 0.0316 µM
[10] = second compound 1 µM, first compound 0.1 µM
[11] = second compound 1 µM, first compound 0.316 µM
[12] = second compound 1 µM, first compound 1 µM
[13] = second compound 3.16 µM, first compound 0.0316 µM
[14] = second compound 3.16 µM, first compound 0.1 µM
[15] = second compound 3.16 µM, first compound 0.316 µM
[16] = second compound 3.16 µM, first compound 1 µM
[17] = second compound 10 µM, first compound 0.0316 µM
[18] = second compound 10 µM, first compound 0.1 µM
[19] = second compound 10 µM, first compound 0.316 µM
[20] = second compound 10 µM, first compound 1 µM
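Further: spheroids exposed to agents for seven days.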
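Wherever viability, T/C is given: 100% = DMSO vehicle control viability.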

Q: What does the source list for `O=C(c1cc(Cc2n[nH]c(=O)c3ccccc23)ccc1F)N1CCN(C(=O)C2CC2)CC1` + CC(CO)NC(=O)c1cc(-c2ccc(Cl)cc2)nn(-c2cnn(C)c2)c1=O?
A: IC50 (second compound 0.1 µM): > 10000 nM; IC50 (second compound 0.316 µM): > 10000 nM; IC50 (second compound 1 µM): > 10000 nM; IC50 (second compound 3.16 µM): > 10000 nM; IC50 (second compound 10 µM): > 10000 nM; viability, T/C [1]: 82.1%; viability, T/C [2]: 89.5%; viability, T/C [3]: 81.5%; viability, T/C [4]: 83.6%; viability, T/C (second compound 0.1 µM, first compound 3.16 µM): 79.9%; viability, T/C (second compound 0.1 µM, first compound 10 µM): 76.9%; viability, T/C [5]: 91%; viability, T/C [6]: 97.5%; viability, T/C [7]: 96.1%; viability, T/C [8]: 84.2%; viability, T/C (second compound 0.316 µM, first compound 3.16 µM): 81.1%; viability, T/C (second compound 0.316 µM, first compound 10 µM): 78.7%; viability, T/C [9]: 84.7%; viability, T/C [10]: 90.4%; viability, T/C [11]: 89.5%; viability, T/C [12]: 85.6%; viability, T/C (second compound 1 µM, first compound 3.16 µM): 81.7%; viability, T/C (second compound 1 µM, first compound 10 µM): 79.5%; viability, T/C [13]: 95%; viability, T/C [14]: 86.6%; viability, T/C [15]: 93%; viability, T/C [16]: 85.5%; viability, T/C (second compound 3.16 µM, first compound 3.16 µM): 84.6%; viability, T/C (second compound 3.16 µM, first compound 10 µM): 78.3%; viability, T/C [17]: 88%; viability, T/C [18]: 94.5%; viability, T/C [19]: 82.9%; viability, T/C [20]: 84.5%; viability, T/C (second compound 10 µM, first compound 3.16 µM): 76.3%; viability, T/C (second compound 10 µM, first compound 10 µM): 75.7%

Q: What does the source list for `Nc1ncn(C2CC(O)C(CO)S2)c(=O)n1` (stereo not given) + Cc1cncc(-c2nc(NCCc3c[nH]c4ccccc34)c3ncn(C(C)C)c3n2)c1?
A: IC50 (second compound 0.1 µM): > 300 nM; IC50 (second compound 0.316 µM): > 300 nM; IC50 (second compound 1 µM): > 300 nM; IC50 (second compound 3.16 µM): > 300 nM; IC50 (second compound 10 µM): > 300 nM; viability, T/C (second compound 0.1 µM, first compound 0.000949 µM): 106%; viability, T/C (second compound 0.1 µM, first compound 0.003 µM): 95.4%; viability, T/C (second compound 0.1 µM, first compound 0.00949 µM): 93.7%; viability, T/C (second compound 0.1 µM, first compound 0.03 µM): 90.4%; viability, T/C (second compound 0.1 µM, first compound 0.0949 µM): 93.2%; viability, T/C (second compound 0.1 µM, first compound 0.3 µM): 82.5%; viability, T/C (second compound 0.316 µM, first compound 0.000949 µM): 102%; viability, T/C (second compound 0.316 µM, first compound 0.003 µM): 99.8%; viability, T/C (second compound 0.316 µM, first compound 0.00949 µM): 101%; viability, T/C (second compound 0.316 µM, first compound 0.03 µM): 94.3%; viability, T/C (second compound 0.316 µM, first compound 0.0949 µM): 88.7%; viability, T/C (second compound 0.316 µM, first compound 0.3 µM): 85.7%; viability, T/C (second compound 1 µM, first compound 0.000949 µM): 106%; viability, T/C (second compound 1 µM, first compound 0.003 µM): 111%; viability, T/C (second compound 1 µM, first compound 0.00949 µM): 121%; viability, T/C (second compound 1 µM, first compound 0.03 µM): 109%; viability, T/C (second compound 1 µM, first compound 0.0949 µM): 106%; viability, T/C (second compound 1 µM, first compound 0.3 µM): 103%; viability, T/C (second compound 3.16 µM, first compound 0.000949 µM): 84.1%; viability, T/C (second compound 3.16 µM, first compound 0.003 µM): 87.8%; viability, T/C (second compound 3.16 µM, first compound 0.00949 µM): 93.4%; viability, T/C (second compound 3.16 µM, first compound 0.03 µM): 84.7%; viability, T/C (second compound 3.16 µM, first compound 0.0949 µM): 66.5%; viability, T/C (second compound 3.16 µM, first compound 0.3 µM): 73%; viability, T/C (second compound 10 µM, first compound 0.000949 µM): 65%; viability, T/C (second compound 10 µM, first compound 0.003 µM): 50.9%; viability, T/C (second compound 10 µM, first compound 0.00949 µM): 58%; viability, T/C (second compound 10 µM, first compound 0.03 µM): 44%; viability, T/C (second compound 10 µM, first compound 0.0949 µM): 53%; viability, T/C (second compound 10 µM, first compound 0.3 µM): 52.7%

Q: With `CC1COCCN1c1cc(-c2ccnn2C)c2ccnc(-c3ccn[nH]3)c2n1` (stereo not given) + Cc1ccccc1N=Nc1ccc(NC(=O)c2ccnn2C)c(C)c1 as the compound, how does the IC50 (second compound 0.1 µM) read?
A: 168 nM

Q: What about the IC50 (second compound 0.316 µM) of the same compound?
A: 157 nM

Q: And the IC50 (second compound 1 µM)?
A: 193 nM

Q: What about the IC50 (second compound 3.16 µM) of the same compound?
A: 138 nM

Q: And the IC50 (second compound 10 µM)?
A: 233 nM

Q: What about the viability, T/C (second compound 0.1 µM, first compound 0.00316 µM) of the same compound?
A: 98.7%

Q: And the viability, T/C (second compound 0.1 µM, first compound 0.01 µM)?
A: 101%

Q: And the viability, T/C [1]?
A: 82%

Q: And the viability, T/C [2]?
A: 59.7%

Q: What about the viability, T/C [3] of the same compound?
A: 38.7%

Q: What about the viability, T/C [4] of the same compound?
A: 34.5%

Q: And the viability, T/C (second compound 0.316 µM, first compound 0.00316 µM)?
A: 103%

Q: What about the viability, T/C (second compound 0.316 µM, first compound 0.01 µM) of the same compound?
A: 103%

Q: What about the viability, T/C [5] of the same compound?
A: 78.4%

Q: And the viability, T/C [6]?
A: 60.3%

Q: And the viability, T/C [7]?
A: 36.6%

Q: What about the viability, T/C [8] of the same compound?
A: 31.8%

Q: What about the viability, T/C (second compound 1 µM, first compound 0.00316 µM) of the same compound?
A: 102%

Q: And the viability, T/C (second compound 1 µM, first compound 0.01 µM)?
A: 100%

Q: And the viability, T/C [9]?
A: 76.9%

Q: And the viability, T/C [10]?
A: 65.1%

Q: And the viability, T/C [11]?
A: 37.9%

Q: What about the viability, T/C [12] of the same compound?
A: 36.3%

Q: And the viability, T/C (second compound 3.16 µM, first compound 0.00316 µM)?
A: 103%

Q: And the viability, T/C (second compound 3.16 µM, first compound 0.01 µM)?
A: 107%

Q: And the viability, T/C [13]?
A: 84.5%

Q: And the viability, T/C [14]?
A: 54.9%

Q: And the viability, T/C [15]?
A: 39.8%

Q: And the viability, T/C [16]?
A: 35.1%

Q: What about the viability, T/C (second compound 10 µM, first compound 0.00316 µM) of the same compound?
A: 89.7%

Q: What about the viability, T/C (second compound 10 µM, first compound 0.01 µM) of the same compound?
A: 89.3%

Q: And the viability, T/C [17]?
A: 76.3%

Q: And the viability, T/C [18]?
A: 57.6%

Q: What about the viability, T/C [19] of the same compound?
A: 49.8%

Q: And the viability, T/C [20]?
A: 39.1%
